The text below walks through data of ChEMBL document CHEMBL5365474, “Discovery of a First-in-Class CD38 Inhibitor for the Treatment of Mitochondrial Myopathy” (J Med Chem, 2023).

The solubility is the concentration that dissolves in the medium under given conditions.

The nature of the data set: physchem. The following applies: PBS, pH 7.4.

Each structure is given as a SMILES string. In brackets after ≈: the same amount, converted by molar mass.

Compound `O=C(Nc1cccnc1)c1cc(C(F)(F)F)nc(-n2ccnc2)n1` registered a solubility at 2 h of 48 µM (≈ 16 µg/mL).
